Patent US5023340A, “Pyrrolizioines and synthesis thereof” (Monsanto Company, priority 1989, dated 1991)

How the values were obtained:
[1] = system: human liver α-mannosidases; experiment: inhibition of human liver α-mannosidases; assay type: biochemical
From the text: (§1) The effects of the ring contracted swainsonines (3) and (4) on the inhibition of 14 human liver glycosidases was studied by the assay methods described in Palamarczyk et al., Arch. Biochem. Biophys. 243, 35 (1985); Daniel et al., Glycoconjugate J. 6, 229 (1989) and Cenci di Bello et al., Biochem. J. 259, 855 (1989). […] Chem. Commun.

[2] = system: broad specificity β-galactosidase/β-glucosidase; experiment: inhibition of human liver glycosidases: broad specificity β-galactosidase/β-glucosidase; assay type: biochemical
From the text: as §1

glycosidases = experiment: inhibition of glycosidases (general statement); assay type: biochemical; details: compared with swainsonine
amyloglucosidase = details: literature (Nash et al.); cited from earlier work
α-fucosidase = experiment: inhibition of human liver glycosidases: α-fucosidase; assay type: biochemical; details: 1 mM
From the text: as §1

lysosomal α-mannosidase [3] = target: T1, lysosomal α-mannosidase (Homo sapiens, UniProt O00754); experiment: inhibition of human liver glycosidases: lysosomal α-mannosidase; assay type: biochemical
T1 construct: from tissue; host or cells: human liver
T1 sequence (O00754 50-601 limits assumed): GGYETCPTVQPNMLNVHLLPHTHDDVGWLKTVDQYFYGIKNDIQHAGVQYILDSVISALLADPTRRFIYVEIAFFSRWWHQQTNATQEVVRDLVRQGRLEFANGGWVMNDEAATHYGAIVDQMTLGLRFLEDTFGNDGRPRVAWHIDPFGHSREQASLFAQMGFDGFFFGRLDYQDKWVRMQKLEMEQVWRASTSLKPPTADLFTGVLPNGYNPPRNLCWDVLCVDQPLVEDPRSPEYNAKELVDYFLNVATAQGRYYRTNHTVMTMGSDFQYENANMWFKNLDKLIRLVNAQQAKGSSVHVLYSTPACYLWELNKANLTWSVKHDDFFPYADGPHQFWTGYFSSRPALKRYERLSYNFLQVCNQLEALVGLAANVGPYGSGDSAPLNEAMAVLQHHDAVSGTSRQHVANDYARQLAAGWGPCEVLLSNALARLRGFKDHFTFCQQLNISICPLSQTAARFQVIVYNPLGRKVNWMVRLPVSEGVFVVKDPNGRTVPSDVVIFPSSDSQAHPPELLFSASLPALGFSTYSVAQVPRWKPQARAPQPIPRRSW
T1 sequence (O00754 602-882 limits assumed): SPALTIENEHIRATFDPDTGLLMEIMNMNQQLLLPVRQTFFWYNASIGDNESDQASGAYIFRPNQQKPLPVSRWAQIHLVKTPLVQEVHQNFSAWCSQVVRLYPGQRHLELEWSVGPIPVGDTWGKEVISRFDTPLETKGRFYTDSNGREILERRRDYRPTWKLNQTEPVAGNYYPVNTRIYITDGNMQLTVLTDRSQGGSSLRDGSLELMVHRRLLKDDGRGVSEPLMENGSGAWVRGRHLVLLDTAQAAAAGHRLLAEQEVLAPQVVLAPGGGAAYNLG
T1 sequence (O00754 883-1011 limits assumed): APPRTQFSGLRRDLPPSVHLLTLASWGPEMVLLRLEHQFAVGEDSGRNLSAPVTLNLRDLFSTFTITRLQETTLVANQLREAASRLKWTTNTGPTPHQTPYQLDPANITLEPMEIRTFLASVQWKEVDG
From the text: as §1

[4] = system: bovine kidney α-fucosidase; experiment: inhibition of bovine kidney α-fucosidase; assay type: biochemical
yeast α-glucosidase = experiment: inhibition of yeast α-glucosidase; assay type: biochemical
snail β-mannosidase = experiment: inhibition of snail β-mannosidase; assay type: biochemical
[5] = system: neutral processing mannosidase; experiment: inhibition of human liver glycosidases: neutral processing mannosidase; assay type: biochemical; details: compared with swainsonine
From the text: as §1

[6] = system: Golgi II processing mannosidase; experiment: inhibition of human liver glycosidases: Golgi II mannosidase; assay type: biochemical; details: compared with swainsonine
From the text: as §1

β-galactosidase = experiment: inhibition of human liver glycosidases: β-galactosidase; assay type: biochemical; details: 1 mM
From the text: as §1

bovine β-galactosidase = experiment: inhibition of bovine β-galactosidase; assay type: biochemical
[7] = target: green coffee bean α-galactosidase (Coffea arabica, UniProt Q42656); experiment: inhibition of green coffee bean α-galactosidase; assay type: biochemical
bovine β-hexosaminidase = experiment: inhibition of bovine β-hexosaminidase; assay type: biochemical
Jack bean α-mannosidase = target: T2, Jack bean α-mannosidase (Canavalia ensiformis, UniProt C0HJB3); experiment: inhibition of Jack bean α-mannosidase; assay type: biochemical
T2 sequence (C0HJB3 1-981): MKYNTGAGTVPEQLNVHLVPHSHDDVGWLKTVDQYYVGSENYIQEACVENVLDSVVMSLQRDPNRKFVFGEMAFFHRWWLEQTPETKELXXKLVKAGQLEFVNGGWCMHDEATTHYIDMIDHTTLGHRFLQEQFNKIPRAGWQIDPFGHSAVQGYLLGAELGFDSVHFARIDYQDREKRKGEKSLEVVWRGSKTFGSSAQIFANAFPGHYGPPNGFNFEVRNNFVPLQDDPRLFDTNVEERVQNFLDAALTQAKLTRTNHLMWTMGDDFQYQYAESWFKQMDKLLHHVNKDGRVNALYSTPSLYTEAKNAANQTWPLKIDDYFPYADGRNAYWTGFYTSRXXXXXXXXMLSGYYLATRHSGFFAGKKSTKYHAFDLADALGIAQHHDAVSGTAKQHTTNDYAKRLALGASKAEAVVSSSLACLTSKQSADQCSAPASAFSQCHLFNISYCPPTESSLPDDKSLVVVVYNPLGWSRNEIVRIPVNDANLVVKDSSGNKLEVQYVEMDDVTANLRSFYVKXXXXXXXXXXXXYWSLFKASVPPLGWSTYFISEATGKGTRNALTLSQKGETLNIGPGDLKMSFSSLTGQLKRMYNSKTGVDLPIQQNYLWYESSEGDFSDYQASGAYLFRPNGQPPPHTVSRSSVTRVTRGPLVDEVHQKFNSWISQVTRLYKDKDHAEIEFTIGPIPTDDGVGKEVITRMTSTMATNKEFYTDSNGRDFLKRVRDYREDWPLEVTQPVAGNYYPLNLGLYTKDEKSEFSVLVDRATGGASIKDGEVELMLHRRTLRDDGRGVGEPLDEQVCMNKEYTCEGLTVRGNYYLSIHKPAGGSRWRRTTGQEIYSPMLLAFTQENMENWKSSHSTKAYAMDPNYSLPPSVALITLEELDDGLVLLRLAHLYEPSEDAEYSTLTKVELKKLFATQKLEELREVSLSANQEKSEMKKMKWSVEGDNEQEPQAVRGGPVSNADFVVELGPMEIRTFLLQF

almond β-glucosidase = experiment: inhibition of almond β-glucosidase; assay type: biochemical
[8] = system: Aspergillus niger α-galactosidase; experiment: inhibition of Aspergillus niger α-galactosidase; assay type: biochemical
lysosomal α-mannosidase [9] = details: literature; cited from earlier work
[10] = system: processing forms of α-mannosidase; details: literature; cited from earlier work

green coffee bean α-galactosidase, sequence (Q42656 16-378): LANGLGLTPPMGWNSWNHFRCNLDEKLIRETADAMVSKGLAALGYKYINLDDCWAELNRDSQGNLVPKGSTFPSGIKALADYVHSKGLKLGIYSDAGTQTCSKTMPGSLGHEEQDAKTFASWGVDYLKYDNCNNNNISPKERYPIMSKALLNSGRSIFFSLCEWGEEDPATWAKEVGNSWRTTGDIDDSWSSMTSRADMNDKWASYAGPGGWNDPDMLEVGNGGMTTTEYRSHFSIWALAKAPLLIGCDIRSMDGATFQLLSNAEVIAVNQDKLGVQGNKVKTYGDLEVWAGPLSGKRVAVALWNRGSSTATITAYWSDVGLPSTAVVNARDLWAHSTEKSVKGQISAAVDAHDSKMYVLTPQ

O[C@H]1[C@H]2[C@@H](O)CCN2C[C@H]1O [Compound 4, (1S,2R,7S,7aR)-1,2,7-Trihydroxypyrrolizidine]
inhibition of human liver α-mannosidases [1]: does not inhibit
inhibition of broad specificity β-galactosidase/β-glucosidase ([2]; concentration not given): 40%
glycosidase inhibitory activity (glycosidases): weaker such activity than swainsonine

OC[C@@H]1[C@@H](O)[C@@H](O)[C@H]2[C@@H](O)CCN21 [Compound 5, 1,7a-diepialexine]
amyloglucosidase inhibition (amyloglucosidase): powerful amyloglucosidase inhibitor

O[C@H]1[C@H]2[C@H](O)CCN2C[C@H]1O [Compound 3, (1S,2R,7R,7aR)-1,2,7-Trihydroxypyrrolizidine]
inhibition of α-fucosidase (α-fucosidase): 33%
IC50 (lysosomal α-mannosidase [3]; human liver lysosomal α-mannosidase, read-out: I50): 1.5 mM
inhibition of bovine kidney α-fucosidase [4]: no significant inhibition
inhibition of yeast α-glucosidase (yeast α-glucosidase): no significant inhibition
inhibition of snail β-mannosidase (snail β-mannosidase): no significant inhibition
inhibition of neutral processing mannosidase [5]: less effective
inhibition of Golgi II processing mannosidase [6]: less effective
inhibition of β-galactosidase (β-galactosidase): 69%
inhibition of bovine β-galactosidase (bovine β-galactosidase): no significant inhibition
inhibition of green coffee bean α-galactosidase [7]: no significant inhibition
inhibition of broad specificity β-galactosidase/β-glucosidase ([2]; 1 mM): 25%
inhibition of bovine β-hexosaminidase (bovine β-hexosaminidase): no significant inhibition
Ki (Jack bean α-mannosidase): 1.7 mM
glycosidase inhibitory activity (glycosidases): weaker such activity than swainsonine
inhibition of almond β-glucosidase (almond β-glucosidase): no significant inhibition
inhibition of Aspergillus niger α-galactosidase [8]: no significant inhibition

O[C@H]1[C@H]2[C@H](O)CCCN2C[C@H]1O [Compound 1, (1S,2R,8R,8aR)-1,2,8-Trihydroxyindolizidine]
inhibition of lysosomal α-mannosidase (lysosomal α-mannosidase [9]): potent and specific inhibitor
Ki (lysosomal α-mannosidase [3]; lysosomal α-mannosidase, comparator): 70 nM
inhibition of some of the processing forms of α-mannosidase [10]: potent and specific inhibitor
